According to ChEMBL document CHEMBL1201862, “PubChem BioAssay data set” (2004):
Activity calls are given as the source filed them.

Columns and labels:
[1] = target: Sphingosine 1-phosphate receptor 2 (Homo sapiens, UniProt O95136); assay: Dose Response Cell Based Assay for Agonists of the S1P2 Receptor of Purchased Analogues. [Related pubchem assays: 729, 843, 854, 736 ]; format: functional
Procathepsin L = Procathepsin L (Homo sapiens, UniProt P07711); assay: cathepsin L inhibitors, dose response, counter-screen for M1/M17 aminopeptidase inhibitor project, biochemical, QFRET, 1536-well (AID 2214)
Procathepsin L, sequence (P07711 whole entry): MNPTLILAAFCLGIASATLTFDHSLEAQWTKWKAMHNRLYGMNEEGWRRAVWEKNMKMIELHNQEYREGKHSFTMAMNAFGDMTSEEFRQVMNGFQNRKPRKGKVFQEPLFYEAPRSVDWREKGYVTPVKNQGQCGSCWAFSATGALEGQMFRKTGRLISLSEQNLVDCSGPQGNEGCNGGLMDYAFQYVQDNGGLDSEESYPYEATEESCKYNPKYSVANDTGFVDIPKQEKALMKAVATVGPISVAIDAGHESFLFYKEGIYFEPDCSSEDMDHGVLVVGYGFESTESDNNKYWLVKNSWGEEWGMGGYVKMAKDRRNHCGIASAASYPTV

Large T antigen = Large T antigen (Simian virus 40, UniProt P03070); format: functional, Betapolyomavirus macacae;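 further: Confirmatory-stage PubChem screen for compounds that inhibit SV40 T antigen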
Large T antigen, sequence (P03070 whole entry): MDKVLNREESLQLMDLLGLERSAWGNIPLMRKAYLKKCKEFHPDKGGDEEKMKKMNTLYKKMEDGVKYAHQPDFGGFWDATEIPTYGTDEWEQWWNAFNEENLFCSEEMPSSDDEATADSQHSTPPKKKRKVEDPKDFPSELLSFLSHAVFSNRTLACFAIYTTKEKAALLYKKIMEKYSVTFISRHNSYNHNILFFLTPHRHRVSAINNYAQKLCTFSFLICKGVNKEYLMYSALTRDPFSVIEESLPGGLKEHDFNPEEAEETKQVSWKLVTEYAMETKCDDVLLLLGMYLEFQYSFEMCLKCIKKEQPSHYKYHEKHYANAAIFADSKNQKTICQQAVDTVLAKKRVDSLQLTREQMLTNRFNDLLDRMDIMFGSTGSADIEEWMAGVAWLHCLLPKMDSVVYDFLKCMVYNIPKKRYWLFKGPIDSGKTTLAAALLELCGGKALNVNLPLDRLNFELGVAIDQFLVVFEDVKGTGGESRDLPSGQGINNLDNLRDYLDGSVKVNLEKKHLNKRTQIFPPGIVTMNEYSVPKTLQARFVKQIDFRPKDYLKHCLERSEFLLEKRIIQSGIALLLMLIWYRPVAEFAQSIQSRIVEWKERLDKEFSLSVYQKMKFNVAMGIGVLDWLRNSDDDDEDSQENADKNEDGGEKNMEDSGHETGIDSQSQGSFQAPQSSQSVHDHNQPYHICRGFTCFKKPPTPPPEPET

Aspartyl aminopeptidase = Aspartyl aminopeptidase (Plasmodium falciparum 3D7, UniProt Q8I2J3); assay: Counterscreen for inhibitors of M1 and M17 aminopeptidases: QFRET-based biochemical high throughput dose response assay for inhibitors of the Plasmodium falciparum M18 Aspartyl Aminopeptidase (PFM18AAP). [Related PubChem assays: 1619 (Screening assay (M17LAP inhibitors).), 1445 (Screening assay (M1AAP inhibitors).)]
Aspartyl aminopeptidase, sequence (Q8I2J3 whole entry): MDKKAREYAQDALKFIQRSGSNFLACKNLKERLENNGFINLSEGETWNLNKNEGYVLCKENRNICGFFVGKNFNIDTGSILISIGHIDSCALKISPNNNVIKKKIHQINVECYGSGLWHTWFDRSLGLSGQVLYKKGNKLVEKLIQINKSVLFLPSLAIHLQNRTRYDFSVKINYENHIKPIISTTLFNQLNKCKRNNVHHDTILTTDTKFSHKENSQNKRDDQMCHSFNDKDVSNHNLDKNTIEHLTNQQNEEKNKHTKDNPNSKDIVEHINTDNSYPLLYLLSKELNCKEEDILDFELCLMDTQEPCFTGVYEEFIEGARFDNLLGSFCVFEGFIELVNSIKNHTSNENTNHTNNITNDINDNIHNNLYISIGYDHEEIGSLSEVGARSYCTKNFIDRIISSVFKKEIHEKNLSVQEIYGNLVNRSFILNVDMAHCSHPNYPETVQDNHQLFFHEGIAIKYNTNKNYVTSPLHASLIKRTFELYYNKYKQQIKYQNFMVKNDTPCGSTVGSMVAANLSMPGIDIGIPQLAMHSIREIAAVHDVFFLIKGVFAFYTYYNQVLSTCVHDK

Leucine aminopeptidase = target: T1, Leucine aminopeptidase (Plasmodium falciparum 3D7, UniProt Q8IL11); assay: P. falciparum M17LAP inhibitors, primary screen, biochemical, fluorogenic H-Leu-NHMec substrate, 1536-well (AID 1619); format: functional
T1 sequence (Q8IL11 whole entry): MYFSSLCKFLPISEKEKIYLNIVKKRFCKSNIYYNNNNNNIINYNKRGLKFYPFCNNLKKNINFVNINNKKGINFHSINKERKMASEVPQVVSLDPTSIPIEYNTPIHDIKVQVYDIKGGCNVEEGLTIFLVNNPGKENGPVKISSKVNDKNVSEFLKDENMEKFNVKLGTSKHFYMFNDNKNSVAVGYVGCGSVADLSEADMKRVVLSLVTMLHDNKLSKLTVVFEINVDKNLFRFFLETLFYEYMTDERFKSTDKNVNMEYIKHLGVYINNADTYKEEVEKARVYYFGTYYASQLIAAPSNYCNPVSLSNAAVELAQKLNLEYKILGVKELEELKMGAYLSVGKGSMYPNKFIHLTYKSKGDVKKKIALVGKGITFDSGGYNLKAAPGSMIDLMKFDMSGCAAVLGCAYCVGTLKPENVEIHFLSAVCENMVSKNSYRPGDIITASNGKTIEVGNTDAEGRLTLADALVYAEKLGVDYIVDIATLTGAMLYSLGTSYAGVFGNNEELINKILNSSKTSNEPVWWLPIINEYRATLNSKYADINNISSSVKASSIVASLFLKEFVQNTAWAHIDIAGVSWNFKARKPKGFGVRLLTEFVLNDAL

[2] = Luminescence-based dose response cell-based high throughput screening assay for cytotoxic compounds using the IEC-6 intestinal epithelial cell line. [Related pubchem assays: 1858 (Summary AID.), 1825 (Counterscreen.), 1907 (Confirmation screen.)]; format: functional
BJ [3] = assay: cytotoxicity toward BJ-TERT fibroblasts, dose response, cell-based, RAS-independent, luminescence (AID 1933); format: functional; conditions: Homo sapiens
[4] = cytotoxicity toward DRD oncogenic fibroblasts, dose response, cell-based, non-viral oncogenic, luminescence (AID 1934); format: functional; conditions: Homo sapiens
BJ [5] = assay: cytotoxicity toward BJ-TERT-LT-ST fibroblasts, dose response, cell-based, RAS-independent, luminescence (AID 1935); format: functional; conditions: Homo sapiens;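 further: BJ fibroblasts immortalized with TERT plus LT and ST oncogenes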
[6] = cytotoxicity in HEK-293T cells, dose response, cytotoxicity control for TCR NF-kB inhibitor project, luminescence, T-cell screen hits (AID 489026); format: functional, cell-based;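 further: cells exposed to compound about 14 hours before the viability readout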
BJ [7] = assay: cells; format: functional, cell-based; conditions: Homo sapiens
Cytochrome P450 2C9 = Cytochrome P450 2C9 (Homo sapiens, UniProt P11712)
Cytochrome P450 2C9, sequence (P11712 whole entry): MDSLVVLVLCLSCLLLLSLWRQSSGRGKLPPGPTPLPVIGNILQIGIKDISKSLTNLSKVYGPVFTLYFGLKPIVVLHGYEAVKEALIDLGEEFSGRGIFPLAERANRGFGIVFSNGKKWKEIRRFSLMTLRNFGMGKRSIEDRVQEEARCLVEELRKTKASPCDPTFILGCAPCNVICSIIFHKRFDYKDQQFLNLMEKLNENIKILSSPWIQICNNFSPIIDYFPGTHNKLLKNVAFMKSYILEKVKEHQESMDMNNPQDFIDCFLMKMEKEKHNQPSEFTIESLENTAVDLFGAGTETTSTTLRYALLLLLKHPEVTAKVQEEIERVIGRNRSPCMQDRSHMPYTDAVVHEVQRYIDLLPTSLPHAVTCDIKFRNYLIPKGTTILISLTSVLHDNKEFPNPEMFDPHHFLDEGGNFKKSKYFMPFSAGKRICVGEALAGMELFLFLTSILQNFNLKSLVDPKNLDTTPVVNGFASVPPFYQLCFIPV

[8] = M. tuberculosis H37Rv growth inhibitors, H37Rv strain (AID 1626); format: functional
[9] = target: Sphingosine 1-phosphate receptor 3 (Homo sapiens, UniProt Q99500); assay: Dose response cell-based high throughput screening assay for antagonists of the Sphingosine 1-Phosphate Receptor 3 (S1P3). [Related pubchem assays: 1429, 485 ]; format: functional
Sphingosine 1-phosphate receptor 3, sequence (Q99500 whole entry): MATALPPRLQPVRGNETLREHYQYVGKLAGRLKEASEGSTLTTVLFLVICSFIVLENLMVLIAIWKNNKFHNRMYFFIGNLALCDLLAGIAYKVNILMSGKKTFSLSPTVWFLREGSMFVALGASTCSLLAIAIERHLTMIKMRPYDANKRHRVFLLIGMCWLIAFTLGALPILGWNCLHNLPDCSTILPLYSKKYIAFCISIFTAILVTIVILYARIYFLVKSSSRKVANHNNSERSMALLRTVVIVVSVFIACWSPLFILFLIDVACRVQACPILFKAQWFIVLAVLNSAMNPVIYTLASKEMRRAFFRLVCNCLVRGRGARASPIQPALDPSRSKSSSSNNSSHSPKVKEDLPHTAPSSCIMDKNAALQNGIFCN

[10] = target: 5-hydroxytryptamine receptor 1E (Homo sapiens, UniProt P28566); assay: Counterscreen assay for S1P3 antagonists: Dose response cell-based high throughput screening assay to identify antagonists of the 5-Hydroxytryptamine Receptor Subtype 1E (5HT1E). [Related pubchem assays: 1429, 485 ]; format: functional
5-hydroxytryptamine receptor 1E, sequence (P28566 whole entry): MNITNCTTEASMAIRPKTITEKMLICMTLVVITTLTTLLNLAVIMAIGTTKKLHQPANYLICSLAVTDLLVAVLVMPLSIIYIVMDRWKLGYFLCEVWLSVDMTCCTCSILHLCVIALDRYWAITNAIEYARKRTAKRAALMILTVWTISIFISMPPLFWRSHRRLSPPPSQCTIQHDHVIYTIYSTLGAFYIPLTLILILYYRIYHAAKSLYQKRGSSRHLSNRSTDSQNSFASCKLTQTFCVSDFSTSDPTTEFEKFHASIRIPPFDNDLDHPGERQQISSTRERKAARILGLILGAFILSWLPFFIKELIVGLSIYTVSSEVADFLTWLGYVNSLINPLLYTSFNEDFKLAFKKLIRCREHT

Sphingosine 1-phosphate receptor 2, sequence (O95136 whole entry): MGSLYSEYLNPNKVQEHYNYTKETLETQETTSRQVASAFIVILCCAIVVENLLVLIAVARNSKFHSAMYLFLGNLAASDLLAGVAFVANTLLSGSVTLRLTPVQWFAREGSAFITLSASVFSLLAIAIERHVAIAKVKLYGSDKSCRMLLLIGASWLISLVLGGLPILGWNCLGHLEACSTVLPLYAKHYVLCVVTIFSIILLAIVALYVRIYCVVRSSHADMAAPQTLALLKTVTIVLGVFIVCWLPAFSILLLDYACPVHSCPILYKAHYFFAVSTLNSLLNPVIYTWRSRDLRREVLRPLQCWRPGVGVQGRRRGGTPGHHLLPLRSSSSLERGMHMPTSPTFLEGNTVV

Q: With `Cc1cc(C(=O)CN(C)CC(=O)NC(C)C)c(C)n1Cc1ccccc1` as the compound, how does the EC50 [1] read?
A: > 30 µM (not active)

Q: What does the source list for `CCN(CC)c1ccc(NC(=O)CSc2nnc(N)s2)cc1C`?
A: IC50 (Procathepsin L): > 59.6 µM (not active); IC50 (Large T antigen): 14.8 µM (active); IC50 (Aspartyl aminopeptidase): > 73.5 µM (not active); IC50 (Leucine aminopeptidase): 5.57 µM (active)

Q: Which results are given for `COc1cc2c(c(OC)c1OC)-c1ccc(OC)c(=O)cc1[C@@H](N(C)CC#CCO)CC2`?
A: IC50 [2]: 0.226 µM (active); EC50 (BJ [3]): 9.89 µM (active); EC50 [4]: 1.45 µM (inconclusive); EC50 (BJ [5]): 0.616 µM (inconclusive); IC50 [6]: > 80 µM (inactive); EC50 (BJ [7]): 16.7 µM (inconclusive)

Q: Which AC50 (Cytochrome P450 2C9) does the source give for `CCCCOC(=O)Nc1ccc(C)c(Cl)c1` here?
A: 11.2 µM (inconclusive)

Q: What about the IC50 [8] of the same compound?
A: > 100 µM (active)

Q: For `O=C(Nc1ccccc1)C(c1ccccc1)C1CCCC1` (stereo not given), which IC50 [9] is on record?
A: 6.6 µM (active)

Q: What about the IC50 [10] of the same compound?
A: 12.1 µM (not active)
